Entries after “also recorded” stand apart in the source; their conditions may differ. Where two headings read alike, the source gives them in different places. One block for each molecule: values may come before it. Where a SMILES comes first, the peptide text is derived from it. Where no end group is shown, it is not given here.
Columns and labels:
[1] = tested on: human umbilical vein endothelial cells (HUVECs); experiment: NO production in HUVECs (Griess reagent); assay type: cell-based; details: 3 h, 540 nm, compared with control
Procedure: Cultures of human umbilical vein endothelial cells (HUVEC, ATCC* CRL-1730) were incubated at 37 °C in a cell incubator supplied with 5% CO2. Cell media compositions were based on those used in a previous study. Furthermore, production of NO was analyzed using Griess reagent (1% sulphanilamide and 0.1% naphthylethylenediamine dihydrochloride in 2.5% phosphoric acid), according to the method described by Ko et al.. HUVEC were seeded in 96-well plates at 1 × 10* cells/mL; after pre-incubation (24 h) the cells were treated without or with three concentrations of peptides (25, 50, and 100 μg/mL) for 3 h. Then the cells were treated with Griess reagent and incubated at 37 °C for 10 min in the dark. The […] was quantified using a microplate reader at 540 nm.

[2] = tested on: Akt (protein kinase B) in HUVECs; experiment: Phosphorylation of Akt in HUVECs, Western blot; assay type: cell-based, human; details: for phosphorylation level of Akt (in words): 25, 50, and 100 μg/mL, HUVECs pretreated 24 h, triplicate
Procedure: (§1) HUVECs were seeded on 6-well plates at a concentration of 1 × 10* cells/mL. Sixteen hours after seeding, the cells were pretreated with the peptides for 24 h. The experimental procedure was completed as previously described. The primary antibodies (p-Akt, p-eNOS, and β-actin) were used at 1:1000 dilutions and incubated with the membrane at 4 °C overnight. The secondary antibodies were used at 1:3000 dilutions. All antibodies were purchased from Cell Signaling Technology (Beverly, MA, USA).

[3] = tested on: spontaneously hypertensive rats (SHRs); experiment: Systolic blood pressure after oral administration in SHRs (tail-cuff); assay type: in vivo; details: for change in blood pressure, overall result (in words): oral administration, 50 mg/kg, SHRs, time not stated; for systolic blood pressure (SBP): 3 h after oral administration, 50 mg/kg in 1 mL saline, 6 SHRs per group, saline group 200–210 mmHg, mean ± SD
Procedure: SHRs with tail SBP over 180 mmHg were obtained from SLC Inc. (Shizuoka, Japan). Seven-week-old male, specific pathogen-free SHRs of approximately 300 g body weight were raised under room temperature (25 °C) with a 12-h light/dark cycle. The rats were fed a normal diet and tap water, with ad libitum feeding. All animals were administrated the dissolved samples in saline solution. The rats were divided into five groups comprised of a control group (saline); a group treated with peptide from sardine (positive control); and groups treated with any of three peptides (IVDR, WYK, and VASVI). Each was orally administered to 6 SHRs at a dose of 50 mg/kg which was dissolved in 1 mL saline. SBP was measured by a tail-cuff method before administration and at 3, 6, and 9 h post-administration using a CODA™ blood pressure monitor (Kent Scientific Corp., Torrington, CT, USA). The animal experiment received approval from the Animal Care and Use Committee of the Jeju National University (Approval NO. 2017-0017) and all experiments were performed in accordance with the guidelines.

[4] = target: T1, Angiotensin I-converting enzyme (ACE) (Homo sapiens, UniProt P12821); experiment: ACE inhibitory activity assay (Dojindo ACE kit-WST); assay type: biochemical; parameters: purchased Dojindo (Kumamoto, Japan); details: for IC50: mean ± SD of triplicate experiments, read-out: IC50 value of ACE inhibition
Procedure: The inhibitory activity of ACE was measured using the Dojindo ACE kit-WST (Kumamoto, Japan) in accordance with the manufacturer’s protocols. The principles of the kit have been described in a previous study.
The inhibitory ratios were calculated as follows:Inhibition rate (%) = [(Control − Sample)/(Control − Blank)] × 100(1) where IC50 is the concentration of inhibitor required for 50% inhibition of an enzymatic activity.
Target sequence in this assay (P12821 30-1306, species assumed): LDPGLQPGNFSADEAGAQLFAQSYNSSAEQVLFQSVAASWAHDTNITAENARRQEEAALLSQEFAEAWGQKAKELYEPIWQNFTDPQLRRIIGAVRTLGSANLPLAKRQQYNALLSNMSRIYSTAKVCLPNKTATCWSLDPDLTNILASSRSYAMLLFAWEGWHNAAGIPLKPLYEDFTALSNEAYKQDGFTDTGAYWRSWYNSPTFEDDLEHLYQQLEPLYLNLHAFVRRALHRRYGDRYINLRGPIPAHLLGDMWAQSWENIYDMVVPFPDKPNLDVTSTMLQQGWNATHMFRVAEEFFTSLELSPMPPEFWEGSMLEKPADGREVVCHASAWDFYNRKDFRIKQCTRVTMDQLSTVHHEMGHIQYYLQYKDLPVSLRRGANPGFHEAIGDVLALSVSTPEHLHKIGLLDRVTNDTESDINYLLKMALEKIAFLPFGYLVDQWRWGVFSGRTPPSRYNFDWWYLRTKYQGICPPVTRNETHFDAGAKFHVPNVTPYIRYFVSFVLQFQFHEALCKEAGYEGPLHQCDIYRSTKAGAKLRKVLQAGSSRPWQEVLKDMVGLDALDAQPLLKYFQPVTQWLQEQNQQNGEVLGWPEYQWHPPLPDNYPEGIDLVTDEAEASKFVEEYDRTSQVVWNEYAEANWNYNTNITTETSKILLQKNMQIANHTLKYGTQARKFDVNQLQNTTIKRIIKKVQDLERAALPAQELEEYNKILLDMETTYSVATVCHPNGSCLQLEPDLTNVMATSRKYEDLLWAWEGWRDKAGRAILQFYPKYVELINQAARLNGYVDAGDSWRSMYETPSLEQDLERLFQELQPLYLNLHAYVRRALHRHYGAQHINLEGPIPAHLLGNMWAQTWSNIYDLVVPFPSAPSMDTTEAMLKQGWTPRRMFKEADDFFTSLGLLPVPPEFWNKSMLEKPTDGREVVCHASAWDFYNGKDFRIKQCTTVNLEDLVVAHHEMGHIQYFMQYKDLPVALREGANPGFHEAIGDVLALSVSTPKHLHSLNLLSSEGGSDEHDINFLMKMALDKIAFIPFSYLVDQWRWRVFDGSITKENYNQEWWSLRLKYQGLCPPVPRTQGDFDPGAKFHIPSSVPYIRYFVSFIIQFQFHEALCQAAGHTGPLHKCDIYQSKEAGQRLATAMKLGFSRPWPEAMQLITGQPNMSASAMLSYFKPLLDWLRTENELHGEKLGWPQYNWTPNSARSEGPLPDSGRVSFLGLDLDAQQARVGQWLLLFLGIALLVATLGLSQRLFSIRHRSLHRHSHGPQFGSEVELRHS

[5] = tested on: endothelial nitric oxide synthase (eNOS) in HUVECs; experiment: Phosphorylation of eNOS in HUVECs, Western blot; assay type: cell-based, human; details: positive control or overall result, concentration not given
Procedure: as §1

[6] = target: T1, Angiotensin I-converting enzyme (ACE); parameters: purchased Dojindo (Kumamoto, Japan); details: cited from earlier work
Excerpt: Table 1 IC50 values of ACE inhibitory peptides derived from Paralichthys olivaceus surimi. | column: IC50 Value (µM) || Several studies have investigated the relationship between protein intake and blood pressure. […] Our previous study confirmed that surimi manufactured from olive flounder could be used as a beneficial ingredient in dietary protein due to its antihypertensive effect. The study also identified novel peptides derived from surimi. ACE inhibition plays a major physiological role in regulating blood pressure. The current study investigated the ACE inhibition activity of the novel peptides ...
Target sequence in this assay (P12821 30-1306, species assumed): as above

[7] = target: T1, Angiotensin I-converting enzyme (ACE)
Target sequence in this assay (P12821 30-1256): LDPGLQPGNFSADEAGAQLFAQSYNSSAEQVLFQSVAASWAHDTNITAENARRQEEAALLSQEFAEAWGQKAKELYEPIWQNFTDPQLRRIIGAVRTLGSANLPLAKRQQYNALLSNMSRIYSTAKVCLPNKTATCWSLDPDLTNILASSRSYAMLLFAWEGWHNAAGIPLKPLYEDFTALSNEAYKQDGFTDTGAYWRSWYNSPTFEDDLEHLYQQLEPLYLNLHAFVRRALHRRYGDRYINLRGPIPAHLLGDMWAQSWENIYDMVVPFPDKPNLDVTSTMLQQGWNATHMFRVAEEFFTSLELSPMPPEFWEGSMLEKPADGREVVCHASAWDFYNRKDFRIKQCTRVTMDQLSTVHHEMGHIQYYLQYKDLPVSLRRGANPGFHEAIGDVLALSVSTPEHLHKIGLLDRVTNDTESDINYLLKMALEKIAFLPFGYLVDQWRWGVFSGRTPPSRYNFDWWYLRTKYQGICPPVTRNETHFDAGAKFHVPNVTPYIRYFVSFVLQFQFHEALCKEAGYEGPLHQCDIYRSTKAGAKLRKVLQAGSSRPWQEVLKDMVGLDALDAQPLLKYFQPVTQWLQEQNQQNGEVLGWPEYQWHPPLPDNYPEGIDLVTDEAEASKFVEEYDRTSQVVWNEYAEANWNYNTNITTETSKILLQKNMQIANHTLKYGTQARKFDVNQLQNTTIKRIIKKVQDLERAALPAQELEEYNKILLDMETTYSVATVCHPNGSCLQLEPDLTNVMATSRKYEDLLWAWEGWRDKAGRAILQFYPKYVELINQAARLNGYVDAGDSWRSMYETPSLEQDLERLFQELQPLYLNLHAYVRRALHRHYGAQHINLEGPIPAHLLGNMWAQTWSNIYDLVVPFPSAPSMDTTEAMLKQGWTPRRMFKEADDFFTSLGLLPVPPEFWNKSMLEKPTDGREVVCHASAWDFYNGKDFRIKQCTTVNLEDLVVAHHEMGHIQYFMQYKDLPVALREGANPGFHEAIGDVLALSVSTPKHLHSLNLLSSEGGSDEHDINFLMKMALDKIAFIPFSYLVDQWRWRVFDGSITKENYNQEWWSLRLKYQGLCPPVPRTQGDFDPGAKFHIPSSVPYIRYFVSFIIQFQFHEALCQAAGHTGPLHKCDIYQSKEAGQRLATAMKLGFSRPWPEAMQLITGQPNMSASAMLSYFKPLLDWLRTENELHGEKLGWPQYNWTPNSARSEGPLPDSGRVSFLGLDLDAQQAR

[8] = peptides at 25–100 μg/mL, means ± SD of triplicate
[9] = literature peptides for comparison, read-out: IC50 of ACE inhibitory peptides isolated from food proteins

IC50 [4]: 46.9 ± 0.32 µM
Molecule: CC[C@H](C)[C@H](N)C(=O)N[C@H](C(=O)N[C@@H](CC(=O)O)C(=O)N[C@@H](CCCNC(=N)N)C(=O)O)C(C)C [IVDR, Isoleucine-Valine-Aspartic acid-Arginine] (H-IVDR-OH)
NO production in HUVECs (in words) ([1]; 100 μg/mL): increased the production of NO only slightly
phosphorylation level of Akt (in words) [2]: significantly increased
change in blood pressure, overall result (in words) [3]: effective at decreasing SBP in SHRs
ACE inhibitory activity (in words) [4]: high Angiotensin I-converting Enzyme (ACE) inhibition activity; also recorded: high ACE inhibitory activity

IC50 [4]: 33 ± 0.68 µM
Molecule: NCCCC[C@H](NC(=O)[C@H](Cc1ccc(O)cc1)NC(=O)[C@@H](N)Cc1c[nH]c2ccccc12)C(=O)O [WYK, Tryptophan-Tyrosine-Lysine] (H-Trp-Tyr-Lys-OH)
NO production in HUVECs (in words) [1, 8]: significantly higher
phosphorylation level of Akt (in words) [2]: significantly increased
systolic blood pressure (SBP) [3]: 173 ± 4 mmHg
change in blood pressure, overall result (in words) [3]: effective at decreasing SBP in SHRs
ACE inhibitory activity (in words) [4]: high Angiotensin I-converting Enzyme (ACE) inhibition activity; also recorded: high ACE inhibitory activity

Molecule: [Ca+2] [calcium, reference compound]
phosphorylation of Akt (in words) ([2]; HUVECs, positive control or overall result, concentration not given): profoundly increased
phosphorylation of eNOS (in words) [5]: profoundly increased

Molecule: ALGPQFY [from stone fish]
IC50 [6, 9]: 12 µM

Molecule: ANSEVAQWR [from Trichiurus lepturus myosin]
IC50 [6, 9]: 89.6 µM

Molecule: Ala-Ser-Leu [from silkworm pupa]
IC50 [6, 9]: 102 µM

Molecule: Arg-Val-Cys-Leu-Pro (RVCLP) [from lizard fish]
IC50 [6, 9]: 175 µM

Molecule: EALVSQLTR [from Trichiurus lepturus myosin]
IC50 [6, 9]: 91.5 µM

Molecule: Phe-Gly-Als-Ser-Thr-Arg-Gly-Ala (FGASTRGA; printed 'Als' at position 3 read as a typo for Ala) [from Alaska pollock frame]
IC50 [6, 9]: 14.7 µM

IC50 of inhibition of ACE enzymatic activity (Dojindo ACE kit-WST) [7]: 33 µM
Molecule: Trp-Tyr-Lys (WYK) (peptide)

IC50 [4]: 32.7 ± 1.32 µM
Molecule: VASVI [VASVI, Valine-Alanine-Serine-Valine-Isoleucine]
NO production in HUVECs (in words) [1, 8]: significantly higher
phosphorylation level of Akt (in words) [2]: significantly increased
systolic blood pressure (SBP) [3]: 181 ± 2 mmHg
change in blood pressure, overall result (in words) [3]: effective at decreasing SBP in SHRs
ACE inhibitory activity (in words) [4]: high Angiotensin I-converting Enzyme (ACE) inhibition activity; also recorded: high ACE inhibitory activity

Molecule: Val-Tyr [Sardine peptide (Val-Tyr), reference compound]
systolic blood pressure (SBP) [3]: 184 ± 2 mmHg
change in blood pressure, overall result (in words) [3]: declined considerably
IC50 ([6]; determined by Matsufuji et al., read-out: IC50 value of ACE inhibition (sardine peptide)): 26 µM

IC50 of inhibition of ACE enzymatic activity (Dojindo ACE kit-WST) [7]: 46.9 µM
B1: Ile-Val-Asp-Arg (IVDR) (peptide)
peptide: IVDR

IC50 of inhibition of ACE enzymatic activity (Dojindo ACE kit-WST) [7]: 32.7 µM
B2: Val-Ala-Ser-Val-Ile (VASVI) (peptide)
peptide: VASVI

Source: paper PMC7278688, “Anti-Hypertensive Activity of Novel Peptides Identified from Olive Flounder (Paralichthys olivaceus) Surimi” (Foods, 2020)
